Activity and mortality data for 14 compounds are collected here from ChEMBL document CHEMBL3045474, “Natural products-based insecticidal agents 6. Design, semisynthesis, and insecticidal activity of novel monomethyl phthalate derivatives of podophyllotoxin against Mythimna separata Walker in vivo” (2010).

SMILES strings stand for the structures. The source made the active and inactive calls. The rule behind the calls is not given here.

Assay [1] has as its system Mythimna separata. Nature of the assay: In vivo insecticidal activity against pre-third-instar larval stage of Mythimna separata (Oriental armyworm) in corn leaves assessed as induction of molting to abnormal pupae at 1 mg/ml treated for 3 secs before larval infestation on corn leaves by leaf-dipping method. In kind it is functional, organism-based.
In assay [2] the test system is Mythimna separata. In words: In vivo insecticidal activity against pre-third-instar larval stage of Mythimna separata (Oriental armyworm) in corn leaves assessed as reduction in larval movement at 1 mg/ml treated for 3 secs before larval infestation on corn leaves measured after 24 hr by leaf-dipping method. The format is functional, organism-based.
Assay [3] has as its system Mythimna separata. Nature of the assay: In vivo insecticidal activity against pre-third-instar larval stage of Mythimna separata (Oriental armyworm) in corn leaves assessed as induction of loss of body liquid at 1 mg/ml treated for 3 secs before larval infestation on corn leaves measured after 48 hr by leaf-dipping method. In kind it is functional, organism-based.
Assay [4] relates to Mythimna separata. Nature of the assay: In vivo insecticidal activity against pre-third-instar larval stage of Mythimna separata (Oriental armyworm) in corn leaves assessed as corrected mortality rate at 1 mg/ml treated for 3 secs before larval infestation on corn leaves measured after 20 days by leaf-dipping method. In kind it is functional. The settings on record: 480 h.
Assay [5] concerns Mythimna separata. Nature of the assay: In vivo insecticidal activity against pre-third-instar larval stage of Mythimna separata (Oriental armyworm) in corn leaves assessed as induction of larval immobility at 1 mg/ml treated for 3 secs before larval infestation on corn leaves measured after 48 hr by leaf-dipping method. In kind it is functional, organism-based.
The test system of assay [6] is Mythimna separata. Nature of the assay: In vivo insecticidal activity against pre-third-instar larval stage of Mythimna separata (Oriental armyworm) in corn leaves assessed as corrected mortality rate at 1 mg/ml treated for 3 secs before larval infestation on corn leaves measured after 10 days by leaf-dipping method. In kind it is functional. The settings on record: 240 h.

The subject of assay [7] is Mythimna separata. In words: In vivo insecticidal activity against pre-third-instar larval stage of Mythimna separata (Oriental armyworm) in corn leaves assessed as corrected mortality rate at 1 mg/ml treated for 3 secs before larval infestation on corn leaves measured after 33 days by leaf-dipping method. In kind it is functional. The settings on record: 792 h.
Assay [8] concerns Mythimna separata. Nature of the assay: In vivo insecticidal activity against pre-third-instar larval stage of Mythimna separata (Oriental armyworm) in corn leaves assessed as inhibition of adult emergence at 1 mg/ml treated for 3 secs before larval infestation on corn leaves by leaf-dipping method. The format is functional, organism-based.
Assay [9] deals with Mythimna separata. In words: In vivo insecticidal activity against pre-third-instar larval stage of Mythimna separata (Oriental armyworm) in corn leaves assessed as inhibition of larval pupation at 1 mg/ml treated for 3 secs before larval infestation on corn leaves by leaf-dipping method. In kind it is functional, organism-based.

For orientation: mortality means the share of the test organisms that died. `COC(=O)c1ccccc1C(=O)O[C@H]1c2cc3c(cc2[C@@H](c2cc(OC)c(OC)c(OC)c2)[C@@]2(Cl)C(=O)OC[C@H]12)OCO3`: the outcome with Mythimna separata [1], in the assay on Mythimna separata [2], in the assay with Mythimna separata [3], in the assay with Mythimna separata [5], in the assay with Mythimna separata [8] and in the assay with Mythimna separata [9] was Active. For the same compound, the mortality at 1000 µg/mL with Mythimna separata [4] was 31%; with Mythimna separata [6], 16.6%; in the assay with Mythimna separata [7], 53.5%.
For `COC(=O)c1ccccc1C(=O)O[C@@H]1c2cc3c(cc2[C@@H](c2cc(OC)c(OC)c(OC)c2)[C@H]2C(=O)OC[C@@H]21)OCO3`, the result in the assay on Mythimna separata [1], with Mythimna separata [2], in the assay on Mythimna separata [3], with Mythimna separata [5], with Mythimna separata [8] and with Mythimna separata [9] was Active. The mortality at 1000 µg/mL in the assay with Mythimna separata [4] came out at 20.6%; with Mythimna separata [6], 10%; in the assay with Mythimna separata [7], 38.5%.
With `COC(=O)c1cccc([N+](=O)[O-])c1C(=O)O[C@H]1c2cc3c(cc2[C@@H](c2cc(OC)c(OC)c(OC)c2)[C@@H]2C(=O)OC[C@@H]21)OCO3`, the result in the assay with Mythimna separata [1], with Mythimna separata [2], with Mythimna separata [3], with Mythimna separata [5], in the assay with Mythimna separata [8] and in the assay on Mythimna separata [9] was Active. Moreover, the results for the mortality at 1000 µg/mL with Mythimna separata [4], with Mythimna separata [6] and in the assay with Mythimna separata [7] were 13.7%, 13.3% and 14.2%, respectively.
In the case of `CC(=O)O[C@@H]1C[C@H](O)[C@@]23CO[C@@H](O)[C@]1(C)[C@@H]2C[C@@H](O)[C@]1(C)[C@@H]3C(=O)[C@H](OC(C)=O)[C@@]2(C)[C@H](c3ccoc3)C[C@H]3O[C@]321` [TOOSENDANIN], the values for the mortality at 1000 µg/mL in the assay with Mythimna separata [4], with Mythimna separata [6] and in the assay with Mythimna separata [7] were 31%, 30% and 50%, respectively.
As for `COC(=O)c1ccccc1C(=O)O[C@H]1c2cc3c(cc2[C@@H](c2cc(OC)c(OC)c(OC)c2)[C@@H]2C(=O)OC[C@@H]21)OCO3`, the outcome in the assay on Mythimna separata [1], in the assay with Mythimna separata [2], in the assay on Mythimna separata [3], in the assay with Mythimna separata [5], with Mythimna separata [8] and with Mythimna separata [9] was Active. Further, the mortality at 1000 µg/mL was determined as 10.3% in the assay on Mythimna separata [4], 10% with Mythimna separata [6] and 17.8% in the assay with Mythimna separata [7].
Consider `COC(=O)c1ccccc1C(=O)Oc1c(OC)cc([C@@H]2c3cc4c(cc3[C@@H](OC(=O)c3c(C(=O)OC)cccc3[N+](=O)[O-])[C@H]3COC(=O)[C@H]23)OCO4)cc1OC`, for which the outcome in the assay on Mythimna separata [1], in the assay with Mythimna separata [2], in the assay on Mythimna separata [3], in the assay on Mythimna separata [5], with Mythimna separata [8] and in the assay with Mythimna separata [9] was Active. Besides, the mortality at 1000 µg/mL in the assay on Mythimna separata [4] amounted to 20.6%; with Mythimna separata [6], 16.6%; in the assay on Mythimna separata [7], 28.5%.
As for `COC(=O)c1ccccc1C(=O)O[C@H]1c2cc3c(cc2[C@@H](c2cc(OC)c(OC)c(OC)c2)[C@H]2C(=O)OC[C@@H]21)OCO3`, the result in the assay with Mythimna separata [1], in the assay with Mythimna separata [2], with Mythimna separata [3], in the assay with Mythimna separata [5], with Mythimna separata [8] and with Mythimna separata [9] was Active. Further, the mortality at 1000 µg/mL is 24.1% with Mythimna separata [4], 16.6% in the assay on Mythimna separata [6] and 35.7% in the assay on Mythimna separata [7].
`COC(=O)c1ccccc1C(=O)N[C@@H]1c2cc3c(cc2[C@@H](c2cc(OC)c(OC)c(OC)c2)[C@H]2C(=O)OC[C@@H]21)OCO3`: the result in the assay with Mythimna separata [1], with Mythimna separata [2], in the assay with Mythimna separata [3], in the assay on Mythimna separata [5], in the assay with Mythimna separata [8] and with Mythimna separata [9] was Active. Also, the results for the mortality at 1000 µg/mL with Mythimna separata [4], with Mythimna separata [6] and with Mythimna separata [7] were 10.3%, 6.6% and 42.8%, respectively.
In the case of `COC(=O)c1cccc([N+](=O)[O-])c1C(=O)O[C@H]1c2cc3c(cc2[C@@H](c2cc(OC)c(OC)c(OC)c2)[C@H]2C(=O)OC[C@@H]21)OCO3`, the outcome in the assay with Mythimna separata [1], with Mythimna separata [2], with Mythimna separata [3], in the assay on Mythimna separata [5], in the assay on Mythimna separata [8] and in the assay with Mythimna separata [9] was Active. In addition, the figures for the mortality at 1000 µg/mL with Mythimna separata [4], in the assay on Mythimna separata [6] and in the assay with Mythimna separata [7] were 6.9%, 6.6% and 21.4%, respectively.
Regarding `COC(=O)c1cccc([N+](=O)[O-])c1C(=O)O[C@H]1c2cc3c(cc2[C@@H](c2cc(OC)c(OC)c(OC)c2)[C@@]2(Cl)C(=O)OC[C@H]12)OCO3`, the outcome in the assay on Mythimna separata [1], with Mythimna separata [2], in the assay on Mythimna separata [3], in the assay on Mythimna separata [5], in the assay on Mythimna separata [8] and in the assay on Mythimna separata [9] was Active. Also, the mortality at 1000 µg/mL came out at 41.3% in the assay on Mythimna separata [4], 30% in the assay with Mythimna separata [6] and 46.4% with Mythimna separata [7].
For `COC(=O)c1ccccc1C(=O)Oc1c(OC)cc([C@@H]2c3cc4c(cc3[C@@H](OC(=O)c3ccccc3C(=O)OC)[C@H]3COC(=O)[C@H]23)OCO4)cc1OC`, the result in the assay with Mythimna separata [1], in the assay on Mythimna separata [2], with Mythimna separata [3], in the assay with Mythimna separata [5], in the assay with Mythimna separata [8] and in the assay with Mythimna separata [9] was Active. Moreover, the figures for the mortality at 1000 µg/mL in the assay on Mythimna separata [4], in the assay on Mythimna separata [6] and in the assay on Mythimna separata [7] were 17.2%, 16.6% and 21.4%, respectively.
Consider `COC(=O)c1cccc([N+](=O)[O-])c1C(=O)N[C@@H]1c2cc3c(cc2[C@@H](c2cc(OC)c(OC)c(OC)c2)[C@H]2C(=O)OC[C@@H]21)OCO3`, for which the outcome with Mythimna separata [1], with Mythimna separata [2], with Mythimna separata [3], with Mythimna separata [5], in the assay with Mythimna separata [8] and in the assay with Mythimna separata [9] was Active. The mortality at 1000 µg/mL in the assay on Mythimna separata [4] turned out to be 20.6%; in the assay on Mythimna separata [6], 10%; with Mythimna separata [7] it was 35.7%.
Regarding `COC(=O)c1cccc([N+](=O)[O-])c1C(=O)O[C@@H]1c2cc3c(cc2[C@@H](c2cc(OC)c(OC)c(OC)c2)[C@H]2C(=O)OC[C@@H]21)OCO3`, the outcome in the assay on Mythimna separata [1], in the assay with Mythimna separata [2], in the assay on Mythimna separata [3], in the assay with Mythimna separata [5], in the assay with Mythimna separata [8] and in the assay with Mythimna separata [9] was Active. The values for the mortality at 1000 µg/mL in the assay with Mythimna separata [4], in the assay with Mythimna separata [6] and in the assay with Mythimna separata [7] were 17.2%, 10% and 42.8%, respectively.
Consider `COc1cc([C@@H]2c3cc4c(cc3[C@H](O)[C@H]3COC(=O)[C@H]23)OCO4)cc(OC)c1OC` [PODOFILOX], for which the mortality at 1000 µg/mL with Mythimna separata [4] was determined as 20.6%; in the assay on Mythimna separata [6], 16.6%; with Mythimna separata [7] it was 35.7%.
